Experimental data reported in patent publication US20030060499A1, “Novel therapeutic method” (priority 1998, published 2003).
Where a name gives a salt, the structure may show the parent alone.

Key:
Parkinson's patients = test: three year, international, multicentre, double-blind comparative clinical trial of ropinirole versus bromocriptine; type: in vivo, human; conditions: for patients considered responders (at least a 30% reduction from baseline in total motor examination score on the UPDRS): at the study's completion; for mean improvement in UPDRS motor score: three years
Description: In a three year, international, multicentre, double-blind comparative clinical trial, Parkinson's patients were randomised to receive either ropinirole (n=168) or bromocriptine (n=167). 33% of patients received selegiline concomitantly with either ropinirole or bromocriptine. Of those enrolled, 214 patients completed the study (approximately 39% of patients treated with ropinirole and 33% of patients treated with bromocriptine withdrew from the study). Efficacy was based on the following:
1 Mean Unified Parkinson's Disease Rating Scale (UPDRS) Activities of Daily Living (ADL) score (Part II) at completion
2 Improvement in UPDRS total motor examination score (Part III)
3 Percentage of patients who were considered responders, defined as those with at least a 30% reduction from baseline in total motor examination score on the UPDRS
4 Average combined ADL and motor score at endpoint
5 The percentage of patients who required supplemental levodopa therapy.

[1] = tested on: putamen dopaminergic function; test: 18 Fluoro-dopa PET scanning in five year, double-blind, multicentre study of ropinirole versus levodopa; type: in vivo, human; conditions: for loss of putamen dopaminergic function (mean percent change): all patients (Hoehn & Yahr I-III), approximately two years between scans, average of both sides of the brain; for loss of putamen dopaminergic function (mean percent change) / decrease in putamen dopaminergic function (mean percent change): 18 Fluoro-dopa PET; for decrease in putamen dopaminergic function (mean percent change): subgroup of patients with Parkinson's disease for less than 2 years
Description: In an ongoing five year, double-blind, multicentre study, patients with early Pakinson's disease (Hoehn & Yahr I-III) were randomised to receive either ropinirole or levodopa. Of those enrolled, 37 patients were scanned using 18 Fluoro-dopa PET scanning within the first year and then approximately two years later to measure the gradual decline in basal ganglia dopaminergic function. […] The following endpoints were assessed:
1 Mean percent change in putamen dopaminergic function in all patients (Hoehn & Yahr I-III)
2 Mean percent change in putamen dopaminergic function in Parkinson's disease patients with symptoms present for under two years
3 Mean percent change in putamen dopaminergic function in Parkinson's disease patients with symptoms present for more than two years

[2] = patients who completed the study

| SMILES | patients considered responders (at least a 30% reduction from baseline in total motor examination score on the UPDRS) (Parkinson's patients) | mean improvement in UPDRS motor score (Parkinson's patients; [2]) | incidence of dyskinesias (Parkinson's patients; three year trial) | patients who required supplemental levodopa (Parkinson's patients; three year trial) | loss of putamen dopaminergic function (mean percent change) [1] | decrease in putamen dopaminergic function (mean percent change) [1] | average improvement in the combined ADL and motor scores versus bromocriptine (Parkinson's patients; at endpoint, p=0.018) | incidence of dyskinesias (Parkinson's patients; human, in vivo, 3 years) | mean improvement in UPDRS ADL score versus bromocriptine (Parkinson's patients; patients who completed the study, p=0.009) | difference between treatment groups in change in putamen dopaminergic function ([1]; patients with Parkinson's disease for more than two years, ropinirole versus levodopa) |
| --- | --- | --- | --- | --- | --- | --- | --- | --- | --- | --- |
| CC(C)C[C@H]1C(=O)N2CCC[C@H]2[C@]2(O)O[C@](NC(=O)[C@@H]3C=C4c5cccc6[nH]c(Br)c(c56)C[C@H]4N(C)C3)(C(C)C)C(=O)N12 [bromocriptine] | 42% | 22% | 7% | 42% |  |  |  |  |  |  |
| N[C@@H](Cc1ccc(O)c(O)c1)C(=O)O [levodopa] |  |  |  |  | 18% | 28% |  |  |  |  |
| CCCN(CCC)CCc1cccc2c1CC(=O)N2 [ropinirole, 4-[2-(di-n-propylamino)ethyl]-1,3-dihydro-2H-indolin-2-one hydrochlorid] | 53% | 31% |  | 34% | 13% | 14% | statistically significantly greater | 8% | statistically significantly mean improvement | no statistically significant difference |
